Experimental data taken from patent publication US20100184809A1, “Heterocyclic FXR Binding Compounds” (PHENEX PHARMACEUTICALS AG, priority 2006, published 2010).
Values after ≈ are worked out from the molar mass of the structure shown. Like-named read-outs stand apart in the source and are kept apart here.

What was measured:
[1] = Aqueous solubility assay, Protocol A, nephelometry method; assay type: physicochemical; settings: PBS with 5% DMSO, aqueous with cosolvent or surfactant or cyclodextrin, kinetic from dmso stock, PBS pH 7.4, 5% DMSO
Experimental: Aqueous solubility of compounds was determined by nephelometry or by the shake-flask method as follows:
Protocol A, nephelometry method:
Solubility of compounds was measured in PBS (pH 7.4), 5% DMSO at 23° C. Nepheloskan Ascent (Thermo Electron Corporation) nephelometer was used for measurement of light scattering. Tested compounds were dissolved in DMSO to 10 mM. Prior to measurement the compounds were further diluted with PBS in the wells to final compound concentrations of 100, 70, 50, 35, 25, 17, 12 and <10 μg/ml.
The plates were incubated at room temperature for 24 hours to reach equilibrium and the scattered light was measured. Assay validation: Aqueous solubility of acetylsalicylic acid was determined to validate the assay.
The following compounds of Table 2 exemplify such solubility with “−−” meaning solubility<2 μM, “+” meaning 2 μM solubility 100 μM and “++” meaning solubility

[2] = The Merck index, 10th edition; cited from earlier work
[3] = Aqueous solubility assay, Protocol B, shake-flask method; assay type: physicochemical; settings: aqueous buffer, 10 mM PBS buffer pH 7.4, 1% MeOH, room temperature, read-out: Aqueous solubility pH 7.4 (μM) (±standard deviation), shake-flask method
Experimental: Protocol B, shake-flask method:
Sample preparation: Sample and standard solution preparation is performed by mixing equal volumes of acetonitrile containing the internal standard (1 μM final concentration) with sample and calibration standard solutions (100 μl). After vigorously shaking (10 seconds) the samples are centrifuged (6000 g) for 5 minutes at 20° C. Aliquots of the particle-free supernatants are transferred to 200 μl sample vials and subsequently subjected to LC-MS/MS. Assay procedure: Test concentration was 100 μM in 10 mM PBS buffer pH 7.4 with a final MeOH concentration of 1%. The volume of the incubation solution was 500 μl. Depending on each compound's solubility in MeOH, the stock concentration and the incubation concentration was adapted. The test solutions in quadruplicates were shaken at 300 rpm over a 20 hours period at room temperature, followed by centrifugation at 20000 g for 30 minutes to separate the solid phase. 100 μl of particle free sample are added to 100 μl acetonitrile containing the internal standard. The aqueous solubility of the compounds was determined by measuring the concentration of the PBS buffer supernatant by HPLC-MS/MS.

PAMPA permeability assay = assay type: in vitro ADME; settings: % of compound found in the receiver compartment after 16 hours; PBS pH 7.4, 5% DMSO, 23° C.
Experimental: Artificial membrane permeability was determined as follows: Tested compounds were dissolved to 10 mM in 100% DMSO. Permeability of compounds was measured in PBS (pH 7.4), 5% DMSO at 23° C. Safire (Tecan) plate reader was used for measurement the UV/Vis absorption. Protocol: Dilute stocks of tested compounds and controls with PBS to 1.67 mM and mix well by pipeitting, add 280 μl of PBS, 5% DMSO to acceptor plate, add 5 μl of 2% L-α-Phosphatidylcholine suspension in dodecane to the membrane of donor plate, Immediately add 98 μl of PBS to donor plate and make the sandwich with acceptor plate. Add 42 μl of tested compounds and controls dilutions to […], cover the plate, place into camera and incubate for 16 hours. Make the equilibrium plate, add 225 μl of PBS, 3,7% DMSO and 25 μl of tested compounds and controls dilutions to UV plate. After 16 hours pull the donor plate out and transfer 250 μl from acceptor plate to UV plate. Scan UV plate on Safire (Tecan) plate reader from […]. Permeability is reported in % of compound found in the receiver compartment after the incubation period.

[4] = Mouse microsomal stability assay; assay type: in vitro ADME; settings: pH 7.4; mouse liver microsomes, 37° C.
Experimental: In vitro assays were performed to evaluate the metabolic stability of test items in liver microsomes originating from mouse. Preparation of working standards of test items: Working solutions were prepared for each calibration level by appropriate dilution of the corresponding stock solution, depending on each compound's solubility in acetonitrile or acetonitrile/water. Calibration standards were prepared by spiking 196 μl standard matrix with 4 μl of the corresponding working solution. The standard matrix consists of 0.15 mg/ml of microsomal protein in phosphate buffer (100 mM pH 7.4), the final standard solutions contain 2% acetonitrile. The samples and standard solutions were extracted with ethyl acetate, isolation of the compounds was performed by addition of 600 μl ethyl acetate containing the internal standard (0.1 μM) to 200 μl sample and calibration standard. After vigorously shaking (10 minutes) and centrifugation (5000 g) the aqueous phase was separated by freezing in an acetone/dry ice bath and the organic phase is evaporated to dryness using a vacuum centrifuge. Samples were reconstituted in 200 μl acetonitrile/water mix (1:1 v/v) and subsequently subjected to LC-MS/MS. The incubation solution (180 μl) consisted of 90 μl of a microsomal suspension of 0.33 mg/ml of protein in phosphate buffer 100 mM pH 7.4 and 90 μl NADP-regenerating system. The reaction was initiated by the addition of 20 μl of test compound (in 20% acetonitrile) to the preincubated microsomes/buffer mix at 37° C. 200 μl samples were removed from the incubation after 0, 5, 10, and 30 minutes and processed for ethyl acetate extraction as described above. Negative controls using boiled microsomes (boiling water bath, 25 minutes) without regenerating system were run in parallel. The amount of compound in the samples is expressed as percentage of remaining compound compared to time point zero (=100%). These percentages were plotted against the corresponding time points. Intrinsic clearance (CLint) and half-life (t1/2) estimates were determined using the rate of parent disappearance and following formula (1) and (2). (1) CLint=(−k)×V×fu. (2) t1/2=In2/−k. Where CLint=intrinsic clearance [μl/min/mg protein], t1/2=half life [min], k=slope from the linear regression of log [test compound] versus time plot [1/min]. V=6666.7; fu=unbound fraction in the blood. Applying this protocol gave microsomal stabilities for examples and reference compounds as listed below in Table 9: […]

| Structure (SMILES) | solubility at 24 h ([1]; 23 °C, at the day of experiment, read-out: Aqueous solubility (assay validation)) [µg/mL] | Aqueous solubility, reported literature value [2] | solubility at 24 h ([1]; 23° C., 24 hours, read-out: Aqueous solubility pH 7.4) [µM] | solubility at 20 h [3] [µM] | PAMPA Permeability (PAMPA permeability assay) [%] | half-life [4] [min] | microsomal CLint [4] [µL/min/mg] |
| --- | --- | --- | --- | --- | --- | --- | --- |
| CC(=O)Oc1ccccc1C(=O)O [acetylsalicylic acid, reference compound] | > 100 | at least 2,17 mg/ml | – | – | – | – | – |
| CC(C)c1onc(-c2c(Cl)cccc2Cl)c1CCc1ccc(Oc2ccc(C(=O)O)cc2)cc1 [Compound A, reference compound] | – | – | 2 to 100 | 72.4 (≈ 35.9 µg/mL) | 32 | 22 | 207 |
